According to patent US20230242474A1, “LIPID COMPOUND AND THE COMPOSITION THEREOF” (GUANGZHOU RIBOBIO CO., LTD, priority 2020, published 2023):

How the values were obtained:
[1] = format: physicochemical; conditions: Table 1; for Size (nm): lipid nanoparticle of the ionizable lipid (ionizable lipid/phospholipid/PEG lipid/structural lipid 50/10/1.5/38.5 %) with mRNA; for Encapsulated percentage (%) / PDI: lipid nanoparticle of the ionizable lipid with mRNA
[2] = tested on: BALB/c mice; assay: Transfection efficiency: in vivo bioluminescence of luciferase mRNA encapsulated by different LNP; conditions: for Total photons number, Leg: intramuscular injection; for Average fluorescence intensity, Leg (intramuscular injection) / Average fluorescence intensity, Liver (tail vein injection): 10 μg/mice
Protocol: All animals were kept in adaptive feeding for more than 7 days before experiments, free to uptake food and drink water during experimental period, illumination 12/12 h alternating light and dark, room temperature was 20-26° C., humidity was 40-70%.
Experimental method: female BALB/c mice, encapsulated luciferase mRNA with different LNP by four different administrations which included subcutaneous injection (under the armpit), tail vein injection, intraperitoneal injection, intramuscular injection (the tibialis anterior muscle of mouse hind leg); 3, 6, 24, 48 h after administration, applied in vivo fluorescence imaging system (brand: Bruker, model: XTREME) for bioluminescence detection, the specific steps were as follows: substrate preparation: took appropriate amount of substrate Luciferin (brand: Promega) and added saline to make a 10 mg/ml solution, avoided light, injected 100 μl solution into each mouse intraperitoneally. […] Put the anesthetized mouse into machine, set the bioluminescence setting and took the photos, captured the photograph and then adjusted the upper and lower values of photograph, then collected data on the concentrated distribution of fluorescence (e.g., fluorescence intensity, average photons number, and total photons number) and processed data. Statistical analysis: the in vivo imaging outcome were shown in the fluorescence intensity or average of total photons number of different animal in the same tested group, which were used to judge whether the fluorescence intensity or total photon number of luciferase mRNA encapsulated by different LNP were high or low.
The fluorescence intensity and total photons number reflects the transfection efficiency of LNP, the value is higher, referring to the efficiency of delivering encapsulated substance into cell by LNP is higher.

SMILES	Size (nm) [1]	Encapsulated percentage (%) [1]	PDI [1]	Total photons number, Leg ([2]; 1 μg/ mice, 3 h)	Total photons number, Leg ([2]; 1 μg/ mice, 6 h)	Total photons number, Leg ([2]; 1 μg/ mice, 24 h)	other results
CCCCCCOCC(COCCCCCC)OC(=O)CCCCCCCN(CCCO)CCCCCCCC(=O)OC(COCCCCCC)COCCCCCC [A19]	110.1 nm	88.00%	0.0923	3.69E+09	4.77E+09	7.33E+08	–
CCCCCCCCCCCOC(=O)CCCCCN(CCCCCCCC(=O)OC(COCCCCCC)COCCCCCC)CCCNc1c(NC)c(=O)c1=O [A27]	94.16 nm	96.69%	0.13	1.34E+09	1.04E+09	3.41E+08	–
CCCCCCCCCCCOC(=O)CCCCCN(CCO)CCCCCC(=O)OCCCCCCCCCCC [A3, reference compound]	140.6 nm	81.47%	0.120	–	–	–	Average fluorescence intensity, Leg (intramuscular injection) ([2]; 3 h after administration): 60.3; Average fluorescence intensity, Liver (tail vein injection) ([2]; 3 h after administration): 12.1; Average fluorescence intensity, Leg (intramuscular injection) ([2]; 6 h after administration): 69.8; Average fluorescence intensity, Liver (tail vein injection) ([2]; 6 h after administration): 11.9; Average fluorescence intensity, Leg (intramuscular injection) ([2]; 24 h after administration): 35.9; Average fluorescence intensity, Liver (tail vein injection) ([2]; 24 h after administration): 13.5
CCCCC/C=C\C/C=C\CCCCCCCCC(CCCCCCCC/C=C\C/C=C\CCCCC)OC(=O)CCCN(C)C [MC3, reference compound]	86.7 nm	92.00%	0.10	3.43E+08	7.41E+08	2.86E+08	–
CCCCCCOCC(COCCCCCC)(COCCCCCC)COC(=O)CCCCCCCN(CCO)CCCCCCCC(=O)OCC(COCCCCCC)(COCCCCCC)COCCCCCC [A24]	78.69 nm	96.77%	–	–	–	–	Total photons number, Leg ([2]; 5 μg/mice, 3 h): 1.94E+08; Total photons number, Leg ([2]; 5 μg/mice, 6 h): 1.56E+08; Total photons number, Leg ([2]; 5 μg/mice, 24 h): 6.31E+07
CCCCC/C=C/C/C=C/CCCCCCCCN(CCCO)CCCCCCCC(=O)OC(COCCCCCC)COCCCCCC [A15]	–	–	–	–	8.78E+08	–	–
CCCCCCCCOCC(COCCCCCCCC)OC(=O)CCCCCCCN(C)CCCNc1c(NCCCN(C)CCCCCCCC(=O)OC(COCCCCCCCC)COCCCCCCCC)c(=O)c1=O [A31]	–	–	–	1.58E+08	2.65E+08	8.43E+07	–
CCCCCCCCC(CCCCCCCC)OC(=O)CCCCCCCN(CCCO)CCCCCCCC(=O)OC(COCCCCCC)COCCCCCC [A17]	109.5 nm	92.99%	0.1037	–	–	–	–
CCCCCCOCC(COCCCCCC)OC(=O)CCCCCCCN(C)CCCNc1c(NCCCNc2c(NCCCN(C)CCCCCCCC(=O)OC(COCCCCCC)COCCCCCC)c(=O)c2=O)c(=O)c1=O [A32]	128.7 nm	94.19%	0.07	–	–	–	–
CCCCCCOCC(COCCCCCC)OC(=O)CCCCCCCN(CCCCCCCC(=O)OC(COCCCCCC)COCCCCCC)CCCNc1c(NCCCNc2c(NCCCN(CCCCCCCC(=O)OC(COCCCCCC)COCCCCCC)CCCCCCCC(=O)OC(COCCCCCC)COCCCCCC)c(=O)c2=O)c(=O)c1=O [A30]	110.1 nm	98.14%	0.28	–	–	–	–
CCCCCCOCC(COCCCCCC)OC(=O)CCCCCCCN(CCCO)CCCCCCCCCCCC(=O)OC(COCC)COCC [A26]	120.3 nm	83.56%	0.064	–	–	–	–
CCCCCCOCC(COCCCCCC)OC(=O)CCCCCCCN(CCCCCCCC(=O)OC(COCCCCCC)COCCCCCC)CCCNc1c(NCCCNc2c(NC)c(=O)c2=O)c(=O)c1=O [A29]	126.4 nm	89.98%	0.05	–	–	–	–
CCCCCCCCCCCOC(=O)CCCCCN(CCO)CCCCCCCC(=O)OC(COCCCCCC)COCCCCCC [A11]	–	–	–	–	1.33E+09	–	–
